Experiment: Lipophilicity, log P of the compound
Assay type: physicochemical
Details: octanol/water

| SMILES | logP |
| --- | --- |
| CN(C/C=C/C#CC(C)(C)C)Cc1cccc2ccccc12 [TERBINAFINE] | > 5 |
| Clc1ccc(COC(Cn2ccnc2)c2ccc(Cl)cc2Cl)c(Cl)c1 (stereo unspecified) [MICONAZOLE] | > 5 |
| CC1(C)C(C=C(Cl)Cl)C1C(=O)OCc1cccc(Oc2ccccc2)c1 (stereo unspecified) [PERMETHRIN] | > 5 |
| NC(N)=O [UREA] | 1 to 4 |
| O=c1[nH]cc(F)c(=O)[nH]1 [FLUOROURACIL] | 1 to 4 |
| Nc1nc2c(ncn2COCCO)c(=O)[nH]1 [ACYCLOVIR] | 1 to 4 |
